US9580330B2, “Anhydrous, amorphous and porous magnesium carbonates and methods of production thereof” (DISRUPTIVE MATERIALS AB, priority 2012, dated 2017)

Key:
[1] = Drug release measurement, USP-2 dissolution bath; format: physicochemical; settings: phosphate buffer pH 6.8, 37° C., 50 rpm, 17.5 mg ibuprofen in 500 mL
Experimental: Drug Release Measurement: The release of ibuprofen was carried out in a USP-2 dissolution bath (Sotax AT7 Smart, Sotax AG, Switzerland) equipped with 1000 mL vessels (37° C., 50 rpm). Samples with a total drug content of 17.5 mg ibuprofen were placed in vessels containing 500 mL phosphate buffer (pH=6.8). […] Aliquots of 3 mL were withdrawn from each vessel at regular intervals for 125 min and the drug concentration in the liquid samples was analysed using UV/vis absorbance spectroscopy (1650PC, Shimadzu Corporation, Kyoto, Japan).

[2] = Thermal gravimetric analysis (TGA) of Example 28 samples; format: physicochemical; settings: air flow, 3 K min^−1
Experimental: Thermal gravimetric analysis (TGA) was carried out on a Mettler Toledo, model TGA/SDTA851e, under an air flow in an inert alumina cup. The samples were heated from room temperature to 600° C. with a heating rate of 3 K min^−1.

- time until about 50% of the ibuprofen is dissolved [1]: about 30 minutes
- decomposition temperature of ibuprofen [2]: about 200 °C
SMILES: CC(C)Cc1ccc(C(C)C(=O)O)cc1 (centres unmarked) [free ibuprofen, ibuprofen]
